Where two headings read alike, the source gives them in different places.
Experiments:
[1] = test system: Phytophthora infestans; experiment: whole plant or invertebrate; assay type: in vivo; conditions: for pest or weed control at 10 ppm: read-out: Test 1 preventive value, Measured, applied alone, 10 ppm; for pest or weed control at 50 ppm: read-out: Test 1 preventive value, Measured, applied alone, 50 ppm; for pest or weed control at 20 ppm: read-out: Test 1 Measured, component (b) alone 20 ppm; for pest or weed control at 500 ppm: read-out: Test 1 Measured, component (b) alone 500 ppm
[2] = test system: Pseudoperonospora cubensis; experiment: Test 2: control effect against cucumber downy mildew; assay type: in vivo; conditions: for pest or weed control at 20 ppm: component (b) alone 20 ppm; for pest or weed control at 100 ppm: component (b) alone 100 ppm; for pest or weed control at 500 ppm: component (b) alone 500 ppm
[3] = Phytophthora infestans, in Solanum lycopersicum
[4] = Pseudoperonospora cubensis, read-out: Test 2 Measured
[5] = component (b) alone 0.4 ppm, average of three repeats
[6] = component (b) alone 2 ppm, average of three repeats
[7] = component (b) alone 10 ppm, average of three repeats

SMILES: Cc1c(Br)c2ccc(F)cc2n1S(=O)(=O)c1ncn(S(=O)(=O)N(C)C)n1 [Amisulbrom]
- Test 1 Measured ([1]; component (b) alone, 0.4 ppm): 60
- Test 1 Measured ([1]; component (b) alone, 2 ppm): 80
- Test 1 Measured ([1]; component (b) alone, 10 ppm): 97
- Test 2 Measured ([2]; component (b) alone, 0.4 ppm): 27.5
- Test 2 Measured ([2]; component (b) alone, 2 ppm): 98.8
- Test 2 Measured ([2]; component (b) alone, 10 ppm): 100

SMILES: Cc1cc(C(F)(F)F)nn1CC(=O)N1CCC(c2nc(C3=NOC(c4c(F)cccc4F)C3)cs2)CC1 (stereo not shown) [Oxathiapiprolin]
- Test 1 Measured ([1]; component (b) alone 0.0024 ppm): 60.2
- Test 1 Measured ([1]; component (b) alone 0.012 ppm): 95
- Test 1 Measured ([1]; component (b) alone 0.06 ppm): 100
- Test 2 Measured ([2]; component (b) alone 0.0024 ppm): 40
- Test 2 Measured ([2]; component (b) alone 0.012 ppm): 99
- Test 2 Measured ([2]; component (b) alone 0.06 ppm): 100

SMILES: Fc1ccc(Oc2ccnc3cc(Cl)cc(Cl)c23)cc1 [Quinoxyfen]
- pest or weed control at 10 ppm [1, 3]: 0%
- pest or weed control at 50 ppm [1, 3]: 0%
- pest or weed control at 250 ppm ([1]; Phytophthora infestans, in Solanum lycopersicum, read-out: Test 1 preventive value, Measured, applied alone, 250 ppm): 0%
- pest or weed control at 250 ppm ([2]; Pseudoperonospora cubensis, component (b) alone 250 ppm, read-out: Test 2 Measured): 0%
- pest or weed control at 10 ppm ([2]; Pseudoperonospora cubensis, component (b) alone, 10 ppm, read-out: Test 2 Measured): 0%
- pest or weed control at 50 ppm ([2]; Pseudoperonospora cubensis, component (b) alone, 50 ppm, read-out: Test 2 Measured): 0%

SMILES: Cc1cccc2sc3nncn3c12 [Tricyclazole]
- pest or weed control at 20 ppm [1, 3]: 0%
- pest or weed control at 100 ppm ([1]; Phytophthora infestans, in Solanum lycopersicum, read-out: Test 1 Measured, component (b) alone 100 ppm): 0%
- pest or weed control at 500 ppm [1, 3]: 70%
- pest or weed control at 20 ppm [2, 4]: 0%
- pest or weed control at 100 ppm [2, 4]: 0%
- pest or weed control at 500 ppm [2, 4]: 22.5%

SMILES: COc1ccc(C(=CC(=O)N2CCOCC2)c2ccc(Cl)cc2)cc1OC [Dimethomorph]
- pest or weed control at 0.4 ppm ([1]; Phytophthora infestans, in Solanum lycopersicum, read-out: Test 1 Measured preventive value, component (b) alone, 0.4 ppm): 11.7%
- pest or weed control at 2 ppm ([1]; Phytophthora infestans, in Solanum lycopersicum, read-out: Test 1 Measured preventive value, component (b) alone, 2 ppm): 26.7%
- Test 2 Measured preventive value ([2]; component (b) alone, 0.4 ppm): 0
- Test 2 Measured preventive value ([2]; component (b) alone, 2 ppm): 62.5
- Test 2 Measured preventive value ([2]; component (b) alone, 10 ppm): 95.5

SMILES: COCC(=O)N(c1c(C)cccc1C)[C@H](C)C(=O)OC [Metalaxyl-M]
- Test 1 Measured preventive value [1, 5]: 38.3
- Test 1 Measured preventive value [1, 6]: 89.2
- Test 1 Measured preventive value [1, 7]: 100.0
- Test 1 Measured ([1]; component (b) alone, 0.4 ppm): 54.4
- Test 1 Measured preventive value ([1]; component (b) alone, 0.4 ppm): 38.3
- Test 1 Measured ([1]; component (b) alone, 2 ppm): 86.0
- Test 1 Measured preventive value ([1]; component (b) alone, 2 ppm): 89.3
- Test 1 Measured ([1]; component (b) alone, 10 ppm): 99.0
- Test 1 Measured preventive value ([1]; component (b) alone, 10 ppm): 98.5
- Test 2 Measured preventive value [2, 5]: 0
- Test 2 Measured preventive value [2, 6]: 0
- Test 2 Measured preventive value [2, 7]: 0
- Test 2 Measured ([2]; component (b) alone, 0.4 ppm): 0
- Test 2 Measured preventive value ([2]; component (b) alone, 0.4 ppm): 0
- Test 2 Measured ([2]; component (b) alone, 2 ppm): 0
- Test 2 Measured preventive value ([2]; component (b) alone, 2 ppm): 0
- Test 2 Measured ([2]; component (b) alone, 10 ppm): 0
- Test 2 Measured preventive value ([2]; component (b) alone, 10 ppm): 0

SMILES: O=[N+]([O-])c1cc(C(F)(F)F)c(Cl)c([N+](=O)[O-])c1Nc1ncc(C(F)(F)F)cc1Cl [Fluazinam]
- pest or weed control at 2 ppm ([1]; Phytophthora infestans, in Solanum lycopersicum, read-out: Test 1 preventive value, Measured, applied alone, 2 ppm): 0%
- pest or weed control at 10 ppm [1, 3]: 16.7%
- pest or weed control at 50 ppm [1, 3]: 60.8%
- pest or weed control at 0.4 ppm ([2]; Pseudoperonospora cubensis, applied alone, 0.4 ppm, read-out: Test 2 preventive value, Measured): 0%
- pest or weed control at 2 ppm ([2]; Pseudoperonospora cubensis, applied alone, 2 ppm, read-out: Test 2 preventive value, Measured): 90.8%
- pest or weed control at 10 ppm ([2]; Pseudoperonospora cubensis, applied alone, 10 ppm, read-out: Test 2 preventive value, Measured): 100%

SMILES: COC(=O)NC(=S)Nc1ccccc1NC(=S)NC(=O)OC [Thiophanate-methyl]
- pest or weed control at 20 ppm [1, 3]: 0%
- pest or weed control at 500 ppm [1, 3]: 60%
- pest or weed control at 20 ppm [2, 4]: 0%
- pest or weed control at 100 ppm [2, 4]: 0%
- pest or weed control at 500 ppm [2, 4]: 2.5%

Reference: US11903387B2 (priority 2016, dated 2024)
